We go through one compound from patent publication US9868695B2 (priority 2014, dated 2018).

This data set can be described thus: Oral and IV pharmacokinetic studies. To be noted: BALB/c mice; for bioavailability: PO 10 mg/Kg vs IV 1 mg/Kg. It is filed as in vivo. How it is done: Oral and intravenous (IV) pharmacokinetic studies of compound 1g were carried out in BALB/c male mice (Jubilant Biosys Limited, Bangalore) of age 4-6 weeks, by administering 1g orally and IV at dose of 10 mg/kg for oral and 1 mg/kg for IV. Plasma samples were collected at appropriate time points between the range of 0 hours to 24 hours and analyzed by LC-MS-MS. Mean plasma concentration calculated and data were further analyzed for PK parameters using WinNonlin 5.3 software package.

Setting [1] is: male, mouse, plasma, IV 1 mg/Kg.
Where [2] appears, read: male, mouse, plasma, PO 10 mg/Kg.

Where two headings read alike, the source gives them in different places.

By AUC(0-inf) is commonly meant the area under the concentration-time curve extrapolated to infinity. A high value points to high exposure. Usually AUC(0-t) stands for the area under the concentration-time curve up to a stated or last time point. High values mean high exposure, low ones low exposure. As a reminder, the Cmax is the peak of the concentration-time curve. The term Tmax denotes the time from dosing to the highest level. As for `COc1cc2c(c(OC)c1OC)-c1ccc(Nc3ccc(Cl)c(C(F)(F)F)c3)c(=O)cc1[C@@H](NC(C)=O)CC2` [Compound 1g, N-[(7S)-1,2,3-Trimethoxy-9-oxo-10-[3-(trifluoromethyl)-4-chloro-phenylamino]-5,6,7,9-tetrahydrobenzo[a]heptalen-7-yl]acetamide], the bioavailability was 64.4 % F. The same compound registered a Tlast (IV 1 mg/Kg) of 8.00 h. The same compound displayed a CL (IV 1 mg/Kg, 1 mg/kg) of 6.19 mL/min/kg. Besides, the clearance (male, BALB/c, mouse, plasma, iv, 1 mg/kg, IV 1 mg/Kg) is ~6 mL/min/kg. Besides, the Vd (male, BALB/c, mouse, plasma, iv, 1 mg/kg, IV 1 mg/Kg, read-out: Vd) came out at 1.49 L/kg. Moreover, under “male, BALB/c, mouse, plasma, iv, 1 mg/kg, IV 1 mg/Kg, read-out: Vdss”, the Vd is 1.47 L/kg. Further, under setting [1], the AUC(0-inf) is 2690 ng·h/mL, the AUC(0-t) worked out at 2340 ng·h/mL and the maximum concentration (Cmax) was 698 ng/mL. Moreover, where the note is “male, mouse, plasma, IV 1 mg/Kg, extrapolated, calculated manually using initial 3 time points”, the C0 is 819 ng/mL. In addition, where the note is “male, mouse, plasma, IV 1 mg/Kg, read-out: t1/2, β (converted)”, the half-life is 2.78 h. Besides, for the setting “male, mouse, plasma, read-out: absolute oral bioavailability”, the bioavailability worked out at 64%. For the same compound, under setting [2], the AUC(0-inf) came to 17300 ng·h/mL, the exposure AUC(0-t) came to 16900 ng·h/mL, the Cmax came out at 3030 ng/mL and the Tmax came out at 2 h. Also, under “male, mouse, plasma, PO 10 mg/Kg, read-out: t1/2,β (converted)”, the half-life was 5.43 h.
